Measured values taken from ChEMBL document CHEMBL1201862, “PubChem BioAssay data set” (2004).
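The compound was tested at five concentrations on cells cultured in 96-well plates, with a 48-hour exposure period. Here, GI50 denotes the concentration required for 50% inhibition of growth.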 The source made the active and inactive calls. No stated cut-off is given here; in the data, active = GI50 up to about 1.1 µM and inactive = higher.

Columns and labels:
Assay in all cases: NCI-60 cell line screen, 48 h
IGROV-1 = test system: IGROV-1
A549 = test system: A549
CAKI-1 = test system: CAKI-1
COLO 205 = test system: COLO 205
SR = test system: SR
OVCAR-4 = test system: OVCAR-4
NCI-H460 = test system: NCI-H460
OVCAR-8 = test system: OVCAR-8
Malme-3M = test system: Malme-3M
SF-268 = test system: SF-268
SK-MEL-5 = test system: SK-MEL-5
OVCAR-5 = test system: OVCAR-5
MCF7 = test system: MCF7
LOX IMVI = test system: LOX IMVI
SNB-19 = test system: SNB-19
HCC 2998 = test system: HCC 2998
SK-MEL-2 = test system: SK-MEL-2
U-251 = test system: U-251
MDA-MB-435 = test system: MDA-MB-435
RPMI-8226 = test system: RPMI-8226

Structure (SMILES)	GI50 (IGROV-1)	GI50 (A549)	GI50 (CAKI-1)	GI50 (COLO 205)	GI50 (SR)	GI50 (OVCAR-4)	GI50 (NCI-H460)	GI50 (OVCAR-8)	GI50 (Malme-3M)	GI50 (SF-268)	GI50 (SK-MEL-5)	GI50 (OVCAR-5)	GI50 (MCF7)	GI50 (LOX IMVI)	GI50 (SNB-19)	GI50 (HCC 2998)	GI50 (SK-MEL-2)	GI50 (U-251)	GI50 (MDA-MB-435)	GI50 (RPMI-8226)
CC(O)c1cc2c(s1)C(=O)c1sccc1C2=O (stereo not given)	0.248 µM (active)	0.155 µM (active)	0.552 µM (active)	0.574 µM (active)	0.0803 µM (active)	0.168 µM (active)	0.127 µM (active)	0.191 µM (active)	0.0215 µM (active)	0.114 µM (active)	0.0164 µM (active)	0.186 µM (active)	0.152 µM (active)	0.0247 µM (active)	0.136 µM (active)	0.202 µM (active)	0.0415 µM (active)	0.125 µM (active)	0.0203 µM (active)	0.184 µM (active)
Cc1cc(C)nc(NS(=O)(=O)c2ccc(Nc3nncc(=O)n3N)cc2)n1	15.1 µM (inactive)	34.8 µM (inactive)	16 µM (inactive)	35.4 µM (inactive)	16.8 µM (inactive)	18.1 µM (inactive)	30.1 µM (inactive)	15.4 µM (inactive)	19.2 µM (inactive)	20.1 µM (inactive)	17 µM (inactive)	18.2 µM (inactive)	16.7 µM (inactive)	14.2 µM (inactive)	30.6 µM (inactive)	30.5 µM (inactive)	59 µM (inactive)	17.7 µM (inactive)	18.6 µM (inactive)	9.44 µM (inactive)
C[n+]1c2ccccc2c(N=[N+]=[N-])c2ccccc21	7.03 µM (inactive)	6.44 µM (inactive)	> 10 µM (inactive)	4.29 µM (inactive)	4.13 µM (inactive)	4.26 µM (inactive)	4.26 µM (inactive)	6.46 µM (inactive)	5.42 µM (inactive)	> 10 µM (inactive)	> 10 µM (inactive)	> 10 µM (inactive)	6.95 µM (inactive)	2.94 µM (inactive)	9.18 µM (inactive)	> 10 µM (inactive)	> 10 µM (inactive)	9.93 µM (inactive)	7.14 µM (inactive)	5.08 µM (inactive)
CCC1=C(c2ccc(OC)cc2)CC[C@@]2(CCNC2=O)[C@@H]1C	> 100 µM (inactive)	> 100 µM (inactive)	> 100 µM (inactive)	> 63.4 µM (inactive)	24.7 µM (inactive)	> 100 µM (inactive)	> 100 µM (inactive)	> 100 µM (inactive)	58.7 µM (inactive)	> 100 µM (inactive)	22.1 µM (inactive)	> 100 µM (inactive)	70.8 µM (inactive)	> 75 µM (inactive)	> 100 µM (inactive)	> 100 µM (inactive)	> 90.8 µM (inactive)	> 100 µM (inactive)	> 61.4 µM (inactive)	> 46.1 µM (inactive)
CC(=O)OC1C[C@@H](C)C2(C[C@H](O)c3ccoc3)C(=O)OC[C@]13C2CCC(O)C31CO1 (stereo not given in full)	> 100 µM (inactive)	> 100 µM (inactive)	> 100 µM (inactive)	> 100 µM (inactive)	> 100 µM (inactive)	> 100 µM (inactive)	> 100 µM (inactive)	> 100 µM (inactive)	> 100 µM (inactive)	> 100 µM (inactive)	> 100 µM (inactive)	> 100 µM (inactive)	> 100 µM (inactive)	> 100 µM (inactive)	> 100 µM (inactive)	> 100 µM (inactive)	> 100 µM (inactive)	> 100 µM (inactive)	> 100 µM (inactive)	> 100 µM (inactive)
C/C(=N\Nc1nc2ccccc2[nH]1)c1ncccn1	< 0.031 µM (active)	0.0682 µM (active)	< 0.0224 µM (active)	< 0.0197 µM (active)	< 0.021 µM (active)	0.0528 µM (active)	0.0299 µM (active)	0.043 µM (active)	< 0.0243 µM (active)	0.0382 µM (active)	0.0574 µM (active)	0.735 µM (active)	0.0321 µM (active)	0.047 µM (active)	0.0879 µM (active)	0.721 µM (active)	2.01 µM (inactive)	0.0462 µM (active)	0.0968 µM (active)	0.0585 µM (active)
CC1=C(N2CC2)C(=O)c2nc3n(c2C1=O)CCC3OC(=O)CCl (stereo not given)	0.19 µM (active)	0.0593 µM (active)	0.0615 µM (active)	0.128 µM (active)	0.225 µM (active)	0.0719 µM (active)	0.0183 µM (active)	0.0452 µM (active)	0.0453 µM (active)	0.0498 µM (active)	0.0428 µM (active)	0.0692 µM (active)	< 0.01 µM (active)	0.0354 µM (active)	0.0538 µM (active)	0.0395 µM (active)	0.0478 µM (active)	0.0252 µM (active)	0.0298 µM (active)	0.0955 µM (active)
CO[C@H]1Nc2c(ccc(C)c2O)C(=O)N2C=C(/C=C/C(N)=O)C[C@@H]12 [ANTHRAMYCIN METHYL ETHER]	0.0358 µM (active)	0.0331 µM (active)	0.047 µM (active)	0.0316 µM (active)	< 0.0234 µM (active)	0.052 µM (active)	0.0322 µM (active)	0.0394 µM (active)	0.0261 µM (active)	0.0183 µM (active)	0.0168 µM (active)	0.0541 µM (active)	0.0389 µM (active)	0.0161 µM (active)	< 0.0179 µM (active)	0.0436 µM (active)	0.0151 µM (active)	0.0162 µM (active)	0.014 µM (active)	0.0242 µM (active)
